The nature of the test: Isoprene polymerization test at 95° C. in heptane (heptane phase, turbidity method). As to the method:
The commercial isoprene was passed through an alumina column to remove stabilizer 4-tert-butylcatechol. A 100 mL jar was charged with 0.2 g active polymerization inhibitor, 40 mL heptane, 40 mL DMF, and a stir bar. The above mixture was stirred at room temperature for 30 minutes and settled for 10 minutes.
Heptane phase: A 100 mL jar was charged with 5.0 mL top layer of previous settled two layers' mixture, 1 mL AIBN (0.0004 g/mL) solution, isoprene 50 g. Hexane was added to make a total weight of 100 g solution. About 13 ml of the above mixture was added to 12 pressure tubes with a stir bar and heated to 95° C. After 30 minutes, and every 30 minutes thereafter, two tubes were retrieved from the block and the polymerization reaction was quenched by cooling in an ice bath. The cooled polymer solutions were immediately diluted with toluene. The soluble polymer in the liquid was determined by turbidity method. Results can be seen in FIG. 2. The data used to generate the trend lines in FIG. 2 can be seen in Table 2.

For the compound `CCC(C)Nc1ccc(NC(C)CC)cc1` (stereo not shown) [PDA, di-sec-butyl-4,4′-phenylenediamine], the “polymerization growth in Heptane phase (polyisoprene)” value (shortened to “polymerization growth”) (Time 0, AIBN initiator) is listed as 0 w/w %; the “polymerization growth” value (Time 30 (minutes per method), AIBN initiator) was determined as 0.10% w/w %; the “polymerization growth” value (Time 60 (minutes per method), AIBN initiator) is 0.24% w/w %; the “polymerization growth” value (Time 90 (minutes per method), AIBN initiator) is reported as 0.45% w/w %; the “polymerization growth” value (Time 120 (minutes per method), AIBN initiator) was 0.83% w/w %; the “polymerization growth” value (Time 180 (minutes per method), AIBN initiator) was found to be 1.05% w/w %. Under “Time 240 (minutes per method), AIBN initiator”, the “polymerization growth” value amounted to 1.20% w/w %.

For the origin of these results see patent US12428360B2, “Abating unwanted emulsion polymerization during extractive distillation of conjugated diene monomers” (ECOLAB USA INC., priority 2022, dated 2025).
